Results as given in patent US20260166159A1, “KRAS G12D DEGRADATION AGENT, AND PREPARATION METHOD AND USE THEREFOR” (LEADINGTAC PHARMACEUTICAL (SHAOXING) CO., LTD., priority 2022, published 2026).
Each block holds one compound with its values, some of them ahead of it.

How the values were obtained:
[1] = molecular target: T1, Human KRAS G12D 6His-tagged (Homo sapiens, UniProt P01116, G12D); assay: KRAS-G12D/GTP binding assay (HTRF)
T1 construct: purchased PerkinElmer
Procedure: In this method, the inhibitory effects of the compounds on the binding of KRAS-G12D to GTP were assayed by a homogeneous time-resolved fluorescence (HTRF) technique using a KRAS-G12D/GTP binding assay kit (PerkinElmer).
The experimental procedures were as follows (refer to the kit instructions for detailed test methods): the compounds of the present disclosure were each firstly dissolved in DMSO at a concentration of 20 mM, and then diluted in an equal gradient with a buffer in the kit, so that the final concentrations of the test compounds in the reaction system were in a range of 0.02-5000 nM, and the final concentration of DMSO was 0.5%. 5 μL of each compound was incubated with 5 μL of 1× Human KRAS G12D 6His-tagged (PerkinElmer), 5 μL of 1×6His Eu Cryptate Antibody (PerkinElmer), and 5 μL of 1×GTP Red reagent (PerkinElmer) in a 384-well plate (Greiner) at 25° C. for 1 h. After the incubation was completed, the fluorescence intensity of each well was measured at the excitation wavelength of 337 nm and the emission wavelengths of 620 nm and 665 nm with an EnVision microplate reader (PerkinElmer) in the HTRF mode, and Ratio values were calculated using the formula: Ratio=(665 nm/620 nm)×[…]. The inhibition rates of the compounds at each concentration were calculated by comparing the fluorescence intensity ratio with that of the control group. Then non-linear curve fittings for logarithmic concentration-inhibition rate were performed using the GraphPad Prism 8 analysis software, and the IC50 values of the compounds were obtained (Table 2).

KRAS-G12D = molecular target: T2, KRAS-G12D (Homo sapiens, UniProt P01116, G12D); assay: KRAS-G12D degradation assay (Western Blot), A-427 cells; type: cell-based; settings: A427 cells, 24 h, class symbols; for Dmax: A-427
T2 construct: endogenous in cells; host or cells: A-427 (ATCC), AGS, AsPc-1, Panc 04.03
T2 sequence (P01116 1-188 isoform P01116-2 G12D): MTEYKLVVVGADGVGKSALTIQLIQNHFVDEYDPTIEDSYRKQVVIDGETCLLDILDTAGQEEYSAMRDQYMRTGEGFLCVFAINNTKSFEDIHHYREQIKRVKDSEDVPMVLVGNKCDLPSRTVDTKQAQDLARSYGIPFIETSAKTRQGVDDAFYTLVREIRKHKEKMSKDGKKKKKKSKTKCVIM
In short: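 Western blotting of lysates (5 μg protein) quantified KRAS against a β-actin reference after 24 h exposure to compound at final 0.03–3000 nM in 0.25% DMSO. Cells were A-427, AGS, AsPc-1 or Panc 04.03, all KRAS G12D, at 5×10^5/well. Degradation versus control yielded DC50 and Dmax.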

[2] = tested on: KRAS G12D mutant human gastric cancer cell AGS; assay: 3D cell proliferation inhibition assay, AGS; type: cell-based; settings: 168 h, 7 days, CTG
In short: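 3D growth, low-adsorption plate; 5×10^2 cells/well; cpd 10000–0.026 nM final, 0.2% DMSO; 7 d, 37 °C/5% CO2. CTG luminescence, 60 min RT. % inhibition vs DMSO (cells) and medium blanks; IC50 by nonlinear fit.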

T1 sequence (P01116 1-188 isoform P01116-2 G12D): as above

SMILES: C#Cc1c(F)ccc2cc(O)cc(-c3ncc4c(N5CC6CCC(C5)N6)nc(OC[C@@H]5CCCN5CC5CCC6(CC5)CCN(C(=O)c5ccc(Cl)c(N7CCC(=O)NC7=O)c5)CC6)nc4c3F)c12 [Example 12, 1-(5-(9-(((S)-2-(((4-(3,8-diazabicyclo[3.2.1]octan-3-yl)-7-(8-ethynyl-7-fluoro-3-hydroxynaphthalen-1-yl)-8-fluoropyrido[4,3-d]pyrimidin-2-yl)oxy)methyl)pyrrolidin-1-yl)methyl)-3-azaspiro[5.5]undecane-3-carbonyl)-2-chlorophenyl)dihydropyrimidine-2,4(1H,3H)-dione]
IC50 ([1]; class symbols): 100 to 500 nM
DC50 (KRAS-G12D): 1000 to 10000 nM
Dmax (KRAS-G12D): 50 to 80%

SMILES: C#Cc1c(F)ccc2cc(O)cc(-c3ncc4c(N5CC6CCC(C5)N6)nc(OCC5(CN6CCC(CCN7CCN(C(=O)c8ccc(Cl)c(N9CCC(=O)NC9=O)c8)CC7)CC6)CC5)nc4c3F)c12 [Example 28, 1-(5-(4-(2-(1-((1-(((4-(3,8-diazabicyclo[3.2.1]octan-3-yl)-7-(8-ethynyl-7-fluoro-3-hydroxynaphthalen-1-yl)-8-fluoropyrido[4,3-d]pyrimidin-2-yl)oxy)methyl)cyclopropyl)methyl)piperidin-4-yl)ethyl)piperazine-1-carbonyl)-2-chlorophenyl)dihydropyrimidine-2,4(1H,3H)-dione]
IC50 ([1]; class symbols): ≤ 50 nM
DC50 (KRAS-G12D): 1000 to 10000 nM
Dmax (KRAS-G12D): < 30%

IC50 ([1]; numeric values): 2.4 nM
SMILES: C#Cc1c(F)ccc2cc(O)cc(-c3ncc4c(N5CC6CCC(C5)N6)nc(OCC5(CN6CCN(C(=O)c7ccc(Cl)c(N8CCC(=O)NC8=O)c7)CC6)CC5)nc4c3F)c12 [Example 69, 1-(5-(4-((1-(((4-(3,8-diazabicyclo[3.2.1]octan-3-yl)-7-(8-ethynyl-7-fluoro-3-hydroxynaphthalen-1-yl)-8-fluoropyrido[4,3-d]pyrimidin-2-yl)oxy)methyl)cyclopropyl)methyl)piperazine-1-carbonyl)-2-chlorophenyl)dihydropyrimidine-2,4(1H,3H)-dione]

SMILES: C#Cc1c(F)ccc2cc(O)cc(-c3ncc4c(N5CC6CCC(C5)N6)nc(OCC5(CN6CCN(CC7CCN(C(=O)c8ccc(Cl)c(N9CCC(=O)NC9=O)c8)CC7)CC6)CC5)nc4c3F)c12 [Example 27, 1-(5-(4-((4-((1-(((4-(3,8-diazabicyclo[3.2.1]octan-3-yl)-7-(8-ethynyl-7-fluoro-3-hydroxynaphthalen-1-yl)-8-fluoropyrido[4,3-d]pyrimidin-2-yl)oxy)methyl)cyclopropyl)methyl)piperazin-1-yl)methyl)piperidine-1-carbonyl)-2-chlorophenyl)dihydropyrimidine-2,4(1H,3H)-dione]
IC50 ([1]; class symbols): ≤ 50 nM
DC50 (KRAS-G12D): 1000 to 10000 nM
Dmax (KRAS-G12D): 30 to 50%
IC50 ([2]; class symbols): ≤ 50 nM

SMILES: C#Cc1c(F)ccc2cc(O)cc(-c3ncc4c(N5CC6CCC(C5)N6)nc(OCC5(CN6CCC7(CC6)CCN(C(=O)c6ccc(Cl)c(N8CCC(=O)NC8=O)c6)CC7)CC5)nc4c3F)c12 [Example 85, 1-(5-(9-((1-(((4-(3,8-diazabicyclo[3.2.1]octan-3-yl)-7-(8-ethynyl-7-fluoro-3-hydroxynaphthalen-1-yl)-8-fluoropyrido[4,3-d]pyrimidin-2-yl)oxy)methyl)cyclopropyl)methyl)-3,9-diazaspiro[5.5]undecane-3-carbonyl)-2-chlorophenyl)dihydropyrimidine-2,4(1H,3H)-dione]
IC50 ([1]; numeric values): 1.34 nM
IC50 ([2]; numeric values): 50.2 nM

SMILES: C#Cc1c(F)ccc2cc(O)cc(-c3ncc4c(N5CC6CCC(C5)N6)nc(OC[C@@H]5CCCN5CCCC5CCN(C(=O)c6ccc(Cl)c(N7CCC(=O)NC7=O)c6)CC5)nc4c3F)c12 [Example 9, 1-(5-(4-(3-((S)-2-(((4-(3,8-diazabicyclo[3.2.1]octan-3-yl)-7-(8-ethynyl-7-fluoro-3-hydroxynaphthalen-1-yl)-8-fluoropyrido[4,3-d]pyrimidin-2-yl)oxy)methyl)pyrrolidin-1-yl)propyl)piperidine-1-carbonyl)-2-chlorophenyl)dihydropyrimidine-2,4(1H,3H)-dione]
IC50 ([1]; class symbols): 50 to 100 nM
DC50 (KRAS-G12D): 1000 to 10000 nM
Dmax (KRAS-G12D): 30 to 50%

SMILES: CCc1cccc2cc(O)cc(-c3ncc4c(N5CC6CCC(C5)N6)nc(OC[C@@H]5CCCN5CCCC5CCN(C(=O)c6ccc(Cl)c(N7CCC(=O)NC7=O)c6)CC5)nc4c3F)c12 [Example 1, 1-(5-(4-(3-((S)-2-(((4-(3,8-diazabicyclo[3.2.1]octan-3-yl)-7-(8-ethyl-3-hydroxynaphthalen-1-yl)-8-fluoropyrido[4,3-d]pyrimidin-2-yl)oxy)methyl)pyrrolidin-1-yl)propyl)piperidine-1-carbonyl)-2-chlorophenyl)dihydropyrimidine-2,4(1H,3H)-dione]
IC50 ([1]; class symbols): 100 to 500 nM
DC50 (KRAS-G12D): 1000 to 10000 nM
Dmax (KRAS-G12D): 30 to 50%

SMILES: CCc1cccc2cc(O)cc(-c3ncc4c(N5CC6CCC(C5)N6)nc(OC[C@@H]5CCCN5CCC5CCN(CCC(=O)N[C@H](C(=O)N6C[C@H](O)C[C@H]6C(=O)NCc6ccc(-c7scnc7C)cc6)C(C)(C)C)CC5)nc4c3F)c12 [Example 34, (2S,4R)-1-((S)-2-(3-(4-(2-((S)-2-(((4-(3,8-diazabicyclo[3.2.1]octan-3-yl)-7-(8-ethyl-3-hydroxynaphthalen-1-yl)-8-fluoropyrido[4,3-d]pyrimidin-2-yl)oxy)methyl)pyrrolidin-1-yl)ethyl)piperidin-1-yl)propanamido)-3,3-dimethylbutanoyl)-4-hydroxy-N-(4-(4-methylthiazol-5-yl)benzyl)pyrrolidine-2-carboxamide]
IC50 ([1]; class symbols): 100 to 500 nM
DC50 (KRAS-G12D): 1000 to 10000 nM
Dmax (KRAS-G12D): < 30%

SMILES: C#Cc1c(F)ccc2cc(O)cc(-c3ncc4c(N5CC6CCC(C5)N6)nc(OCC5(CN6CC7CCC(C6)N7CC6CCC7(CC6)CCN(C(=O)c6ccc(Cl)c(N8CCC(=O)NC8=O)c6)CC7)CC5)nc4c3F)c12 [Example 58, 1-(5-(9-((3-((1-(((4-(3,8-diazabicyclo[3.2.1]octan-3-yl)-7-(8-ethynyl-7-fluoro-3-hydroxynaphthalen-1-yl)-8-fluoropyrido[4,3-d]pyrimidin-2-yl)oxy)methyl)cyclopropyl)methyl)-3,8-diazabicyclo[3.2.1]octan-8-yl)methyl)-3-azaspiro[5.5]undecane-3-carbonyl)-2-chlorophenyl)dihydropyrimidine-2,4(1H,3H)-dione]
IC50 ([1]; class symbols): 500 to 1000 nM
DC50 (KRAS-G12D): ≤ 50 nM
Dmax (KRAS-G12D): 80 to 100%

SMILES: C#Cc1c(F)ccc2cc(O)cc(-c3ncc4c(N5CC6CCC(C5)N6)nc(OCC5CCN(CCCCC6CCC7(CC6)CCN(C(=O)c6ccc(Cl)c(N8CCC(=O)NC8=O)c6)CC7)CC5)nc4c3F)c12 [Example 52, 1-(5-(9-(4-(4-(((4-(3,8-diazabicyclo[3.2.1]octan-3-yl)-7-(8-ethynyl-7-fluoro-3-hydroxynaphthalen-1-yl)-8-fluoropyrido[4,3-d]pyrimidin-2-yl)oxy)methyl)piperidin-1-yl)butyl)-3-azaspiro[5.5]undecane-3-carbonyl)-2-chlorophenyl)dihydropyrimidine-2,4(1H,3H)-dione]
IC50 ([1]; class symbols): 100 to 500 nM
DC50 (KRAS-G12D): 100 to 500 nM
Dmax (KRAS-G12D): 50 to 80%

SMILES: C#Cc1c(F)ccc2cc(O)cc(-c3ncc4c(N5CC6CCC(C5)N6)nc(OC[C@@H]5CCCN5CC5CCN(CCC(=O)N[C@H](C(=O)N6C[C@H](O)C[C@H]6C(=O)NCc6ccc(-c7scnc7C)cc6)C(C)(C)C)CC5)nc4c3F)c12 [Example 35, (2S,4R)-1-((S)-2-(3-(4-(((S)-2-(((4-(3,8-diazabicyclo[3.2.1]octan-3-yl)-7-(8-ethynyl-7-fluoro-3-hydroxynaphthalen-1-yl)-8-fluoropyrido[4,3-d]pyrimidin-2-yl)oxy)methyl)pyrrolidin-1-yl)methyl)piperidin-1-yl)propanamido)-3,3-dimethylbutanoyl)-4-hydroxy-N-(4-(4-methylthiazol-5-yl)benzyl)pyrrolidine-2-carboxamide]
IC50 ([1]; class symbols): ≤ 50 nM
DC50 (KRAS-G12D): 1000 to 10000 nM
Dmax (KRAS-G12D): < 30%
